Reference: patent US6235759A, “Dihydropyridinones and pyrrolinones useful as alpha 1A adrenoceptor antagonists” (Merck & Co., Inc., priority 1999, dated 2001)

Assays:
[1] = tested on: human alpha 1b adrenergic receptor; experiment: Selective Binding Assay, alpha 1b ([125I]-HEAT competition); details: alpha 1a versus alpha 1b
Method: Membranes prepared from stably transfected human alpha 1d and alpha 1b cell lines (ATCC CRL 11138 and CRL 11139, respectively) were used to identify compounds that selectively bind to the human alpha 1a adrenergic receptor. These competition binding reactions (total volume=200 μl) contained 50 mM Tris-HCl pH. 7.4, 5 mM EDTA, 150 mM NaCl, 100 pM [^125 I]-HEAT, membranes prepared from cell lines transfected with the respective alpha 1 subtype expression plasmid and increasing amounts of unlabeled ligand. Reactions were incubated at room temperature for one hour with shaking. Reactions were filtered onto Whatman GF/C glass fiber filters with a Inotec 96 well cell harvester. Filters were washed three times with ice cold buffer and bound radioactivity was determined (Ki).

[2] = biological target: T1, human alpha 1a adrenergic receptor (Homo sapiens, UniProt P35348); experiment: Screening Assay: Alpha 1a Adrenergic Receptor Binding ([125I]-HEAT competition)
T1 construct: expressed in transfected cells; host or cells: stably transfected human alpha 1a cell line (ATCC CRL 11140)
T1 sequence (P35348 1-466): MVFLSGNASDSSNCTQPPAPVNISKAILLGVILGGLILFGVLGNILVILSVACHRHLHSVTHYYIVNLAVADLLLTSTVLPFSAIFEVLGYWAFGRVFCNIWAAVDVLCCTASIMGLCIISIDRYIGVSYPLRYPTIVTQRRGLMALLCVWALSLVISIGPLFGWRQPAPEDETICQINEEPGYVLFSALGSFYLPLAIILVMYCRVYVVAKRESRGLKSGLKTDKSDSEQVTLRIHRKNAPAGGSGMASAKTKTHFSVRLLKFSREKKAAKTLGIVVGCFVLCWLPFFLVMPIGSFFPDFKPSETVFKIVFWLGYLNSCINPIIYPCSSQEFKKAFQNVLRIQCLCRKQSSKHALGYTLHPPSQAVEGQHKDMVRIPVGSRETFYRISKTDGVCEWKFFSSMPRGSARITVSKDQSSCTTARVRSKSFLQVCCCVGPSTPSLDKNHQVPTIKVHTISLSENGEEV
Method: Screening Assay: Alpha 1a Adrenergic Receptor Binding
Membranes prepared from the stably transfected human alpha 1a cell line (ATCC CRL 11140) were used to identify compounds that bind to the human alpha 1a adrenergic receptor. These competition binding reactions (total volume=200 μl) contained 50 mM Tris-HCl pH. 7.4, 5 mM EDTA, 150 mM NaCl, 100 pM [^125 I]-HEAT, membranes prepared from the alpha 1a cell line and increasing amounts of unlabeled ligand. Reactions were incubated at room temperature for one hour with shaking. Reactions were filtered onto Whatman GF/C glass fiber filters with a Inotec 96 well cell harvester. Filters were washed three times with ice cold buffer and bound radioactivity was determined (Ki).

Structure (SMILES) | selectivity in binding to alpha 1a receptors versus alpha 1b [1] | Ki ([2]; human alpha 1a cell line membranes, 100 pM [125I]-HEAT, room temperature, one hour) [nM] | alpha 1 antagonist activity of the (S) enantiomer relative to the (R) enantiomer ([2]; enantiomer comparison, in words, test not specified)
CC1=C(C(=O)NCCCN2CCC(C#N)(c3ccccn3)CC2)[C@@H](c2ccc(F)c(F)c2)CC(=O)N1C [Example 17, 4-(R)-(3 ,4-Difluorophenyl)-1,6-dimethyl-3,4-dihydro-2-pyridinone-5-carboxylic acid{3-[4-(2-pyridyl)-4-cyano-piperidine-1-yl]-propyl}amide] | about 8 fold | 257 | 
CC1=C(C(=O)NCCCN2CCC(c3ccc(F)cc3)CC2)[C@H](c2ccc(F)c(F)c2)CC(=O)N1 [Example 18 (S enantiomer), 4-(S)-(3,4-difluorophenyl)-6-methyl-3,4-dihydro-2-pyridinone-5-carboxylic acid{3-[4-(4-fluorophenyl)-piperidine-1-yl]-propyl}amide] |  |  | less active
